In patent publication US20150141460A1, “Anti-inflammatory Compositions” (Cambridge Enterprise Limited, priority 2007, published 2015):

Columns and labels:
[1] = target: target receptor (site of specific interaction of BN83250) (Homo sapiens, UniProt P30874); test: Competition for binding of [3H]-BN83250 to the target receptor on human myelomonocytic cell line; conditions: competition with 10 nM [3H]-BN83250; non-linear modelling
Method: In this experiment, each reaction received 10 nM labelled BN83250 (a lactam BSCI which binds to the same receptor as compound (I′)), together with various competitors (100 μM-1 pM). The total specific binding was the amount displaced by a large excess (100 μM). Each bar represents the mean of three replicate determinations, with whiskers representing SEM. The Y-axis represents the radioactive counts bound in each experiments in units of counts per minute (cpm). The upper dashed line represents the total binding under the conditions of the experiment, while the lower dashed line represents the non-specific binding; the specific binding is represented by the distance between the dashed lines.
The general pharmacology of the five compounds was assessed, both against the specific target receptor, and against a wide variety of other receptors, many related in structure to the target receptor. Specific binding to the target receptor was assessed by competition for the binding of [^3H]-BN83250 (BN83250 is (S)-3-(2′,2′-dimethyldodecanoylamino)-caprolactam; Fox et al. J Med Chem. […]; 48(3):867-74; an agent known to bind to the same target receptor as the lactam BSCIs disclosed here). Binding to non-target receptors was assessed by competition for the binding of various specific radioligands for other receptors which are well known in the art. […]

leukocytes in BAL fluid = test: Ovalbumin-induced lung inflammation model of asthma, cell counts in BAL fluid; format: in vivo, Brown Norway rats; conditions: 0.3 mg/kg daily by oral gavage day 8 to 21; p<0.01
From the text: Bars represent mean cell counts, shown on the Y axis in units of 10^6 cells, for groups of […] with whiskers representing SEM; * p<0.01 versus ‘sensitised’ using Student's unpaired t-test assuming equal variance, with two tails). The horizontal line represents the average number of leukocytes present in BAL fluid from the lungs of unchallenged rats. All rats in the remaining three groups received the same sensitisation and challenge regimen, but were either treated with vehicle only (‘Sensitised’), or with compound (I′) at 0.3 mg/kg bodyweight or with monteleukast (‘Singulair™’) at 30 mg/kg bodyweight, all administered daily by oral gavage.
Adult Brown Norway rats (200-300 g body weight; n=10 per group) were sensitised by a single intraperitoneal injection of 0.1 mg Ovalbumin on day 0. Each rat then received an intratracheal challenge with a solution of 1% ovalbumin (w/v) on day 8, and with 2% ovalbumin (w/v) on days 15, 18 and 21. The animals were then sacrificed 3 hours after the final challenge on day 21. […]
On sacrifice, total lung leukocyate recruitment was assessed by performing a broncheoalveolar lavage (BAL) using 4 lots of 3 ml sterile phosphate-buffered saline introduced through a tracheal cannula. For each animal, the BAL washes were combined, and the total cell population counted (using a haemocytometer). […]

[2] = test system: chemokine-induced migration; test: BSCI potency: inhibition of chemokine-induced migration in vitro (general statements); format: cell-based

target receptor (site of specific interaction of BN83250), sequence (P30874 whole entry): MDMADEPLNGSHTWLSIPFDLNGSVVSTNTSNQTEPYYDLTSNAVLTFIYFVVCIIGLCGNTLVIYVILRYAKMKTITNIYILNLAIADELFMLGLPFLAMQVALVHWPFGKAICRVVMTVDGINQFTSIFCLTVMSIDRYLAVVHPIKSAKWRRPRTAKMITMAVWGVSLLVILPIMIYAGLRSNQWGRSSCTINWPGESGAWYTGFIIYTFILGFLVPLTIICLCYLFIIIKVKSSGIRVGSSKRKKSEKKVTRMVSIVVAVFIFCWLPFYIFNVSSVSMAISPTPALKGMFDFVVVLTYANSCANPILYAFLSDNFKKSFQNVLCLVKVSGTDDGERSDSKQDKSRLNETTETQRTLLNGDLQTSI

Compound: CC(C)(C)C(=O)N[C@H]1CCCNC1=O [Compound (I′), (S)-3-(2′,2′-dimethylpropanoylamino)-tetrahydropyridin-2-one]
- Ka at target receptor (pM) [1]: 50 pM
- reduction of the number of leukocytes in the BAL washes (leukocytes in BAL fluid): 70%
- potency as a BSCI, fold more potent than the (R)-enantiomer [2]: 5-25 fold
